Experimental data as given in patent publication US20180228743A1, “COMPOUNDS AND METHODS OF PROMOTING MYELINATION” (Case Western Reserve University, priority 2016, published 2018).
Values joined by “and” are separate entries in the source; they are usually repeats but may differ in a detail not shown here. Equal values may be shown once. Read-outs that look alike come from different tables or passages of the source.

Columns and labels:
EpiSC-derived OPCs [1] = experiment: In vitro phenotypic screening of OPCs (MBP+ oligodendrocytes at 72 h); type: cell-based, mouse; conditions: for oligodendrocyte formation in combination with ketoconazole: ketoconazole 2.5 μM (maximally effective dose)
EBP = target: T1, EBP (Mus musculus, UniProt P70245); experiment: EBP enzymatic assay (GC/MS); type: biochemical; conditions: 10 μM, zymostenol 25 μM
T1 construct: active EBP was obtained from mouse microsomes; from tissue
T1 sequence (P70245 1-230): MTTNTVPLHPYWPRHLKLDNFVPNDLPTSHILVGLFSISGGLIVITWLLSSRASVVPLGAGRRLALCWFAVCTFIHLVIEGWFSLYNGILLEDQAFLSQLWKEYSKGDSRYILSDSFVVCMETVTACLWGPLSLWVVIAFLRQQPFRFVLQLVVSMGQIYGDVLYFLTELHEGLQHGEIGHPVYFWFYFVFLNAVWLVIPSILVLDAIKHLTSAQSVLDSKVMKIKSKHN

EpiSC-derived OPCs [2] = experiment: Oligodendrocyte formation on electrospun microfibers; type: cell-based, mouse; conditions: 14 days
Procedure: A 12-well plate containing Mimetex aligned scaffold (microfiber plate, AMSBIO, AMS.TECL-006-1X, Electrospun poly-L-lactide Scaffold, […] cell crown inserts) was prepared as previously described. Briefly, inserts were sterilized with 70% ethanol and washed with PBS before being coated with polyornithine and laminin. After laminin coating, 100,000 cells/mL of EpiSC-derived OPCs were plated in differentiation medium. After 24 h the media was replaced with fresh media containing small molecule treatments. Every 48 h the media was replaced with fresh compound containing media for a total of 14 days. Plates were fixed with 4% PFA, permeabilized with 0.1% Triton X-100, and blocked with 10% donkey serum (v/v) in PBS for 60 min. Plates were stained for MBP (Abcam, ab7349; 1:100) and DAPI staining (Sigma; 5 μg/ml). After staining, the inserts were moved into new 12-well plate and covered with 2 mL of PBS before imaging in Operetta high content Imaging and analysis system. […] Analysis (PerkinElmer Harmony and Columbus software) identified intact nuclei stained by DAPI and calculated the MBP signal intensity per cell per well. Microfiber insert tracking images were taken using a Leica DMi8 with a 20× Dry/NA 0.40 objective. Microfiber plate inserts were mounted using Flouromount-G (SouthernBiotech) and allowed to partially harden before coverslips were added and the insert ring was removed. Confocal images were obtained on a Leica SP8 confocal scanning microscope, with 40× oil/NA 1.30 objective. Confocal stacks of 0.336 μm z-steps were taken at 1024×1024. Each fluorophore was excited sequentially and all contrast and brightness changes were applied consistently between images.

rat CYP51 = target: T2, rat CYP51 (Rattus norvegicus, UniProt Q64654); experiment: CYP51 enzymatic assay (LC/MS quantitation of FF-MAS); type: biochemical; conditions: for IC50: lanosterol 50 μM, 30 minutes, read-out: IC50 for inhibition of rodent CYP51 in vitro
T2 construct: purchased Cypex, Inc
T2 sequence (Q64654 1-503): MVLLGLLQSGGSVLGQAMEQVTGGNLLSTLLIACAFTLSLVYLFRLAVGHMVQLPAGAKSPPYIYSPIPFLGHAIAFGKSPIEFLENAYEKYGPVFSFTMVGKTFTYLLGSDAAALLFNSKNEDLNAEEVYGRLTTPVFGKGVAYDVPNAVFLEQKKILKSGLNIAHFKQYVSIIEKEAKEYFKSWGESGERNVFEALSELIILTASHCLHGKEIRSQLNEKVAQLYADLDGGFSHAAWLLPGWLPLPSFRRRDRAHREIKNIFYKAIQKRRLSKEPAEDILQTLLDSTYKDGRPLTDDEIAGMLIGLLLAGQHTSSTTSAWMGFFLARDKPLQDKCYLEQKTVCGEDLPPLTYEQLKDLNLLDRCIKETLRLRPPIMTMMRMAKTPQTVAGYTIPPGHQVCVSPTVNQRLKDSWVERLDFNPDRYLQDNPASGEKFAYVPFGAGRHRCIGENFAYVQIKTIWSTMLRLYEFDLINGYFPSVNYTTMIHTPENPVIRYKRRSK
Procedure: Finally, 15 μl of each reaction/isopropanol mixture was injected onto a SCIEX Triple Quad 6500 LC-MS/MS system using an APCI ion source in positive ion mode with a Shimadzu UFLC-20AD HPLC and a Phenomenex

EpiSC-derived OPCs [3] = experiment: High-throughput screening of 3,000 bioactive small molecules for MBP+ oligodendrocyte formation from OPCs; type: cell-based, mouse; conditions: 2 μM, 72 h; for % 0ligos: MBP+ oligodendrocytes; for fold induction at 2 µM: Mus musculus, relative to DMSO controls of the same plate, read-out: fold-change in % MBP + oligodendrocytes
Text: Plates were imaged on the Operetta High Content Imaging and Analysis system (PerkinElmer) and a set of 6 fields captured from each well resulting in an average of 1200 cells being scored per well. Analysis (PerkinElmer Harmony and Columbus software) began by identifying intact nuclei stained by DAPI; that is, those traced nuclei that were larger than 300 μm^2 in surface area. Each traced nucleus region was then expanded by 50% and cross-referenced with the […] (MBP) stain to identify oligodendrocyte nuclei, and from this the percentage of oligodendrocytes was calculated. In some experiments, the total process length of MBP+ oligodendrocytes was calculated as previously described.
EpiSC-derived OPCs were grown and expanded in poly-ornithine and laminin-coated flasks before harvesting for plating. Cells were dispensed in differentiation media supplemented with Noggin (R&D Systems; 100 ng/ml), Neurotrophin 3 (R&D Systems; 10 ng/ml), cAMP (Sigma; 50 μM), and IGF-1 (R&D Systems; 100 ng/ml)) using a Biotek EL406 Microplate Washer Dispenser (Biotek) equipped with 5 μL dispense cassette (Biotek), into poly-D-lysine/laminin (Sigma, L2020; 4 μg/ml)-coated sterile, 384-well, CellCarrier ultra plates (PerkinElmer), to a final density of 12,500 cells per well and allowed to attach for 45 min before addition of drug. A 3 mM stock of bioactive compound library in dimethylsulphoxide (DMSO) were prepared in an Abgene storage 384-well plate (ThermoFisher Scientific; AB1055). These were added to assay plates using a 50 nL solid pin tool attached to Janus automated workstation (Perkin Elmer), resulting in a final screening concentration of 2 μM. Cells were incubated at 37° C. for 1 hour and then T3 (Sigma; 40 ng/ml) was added to all wells except negative controls, to which FGF (20 ng/ml) was added instead. Negative controls and T3-alone were included in each assay plate. After incubation at 37° C. for 72 h, cells were fixed, washed and stained similar to 96-well OPC assay protocol, although all the washing steps were performed using a Biotek EL406 Microplate Washer Dispenser (Biotek) equipped with a 96-well aspiration manifold. Cells were stained with DAPI (Sigma; 1 μg/ml) and MBP antibody (Abcam, ab7349; 1:100). Plates were imaged on the Operetta High Content Imaging and Analysis system (PerkinElmer) and a set of 4 fields captured from each well resulting in an average of 700 cells being scored per well. Analysis was performed as in High-Content Imaging and Analysis, above. All plates for the primary screen were processed and analyzed simultaneously to minimize variability. Molecules causing more than 20% reduction in nuclear count relative to DMSO control wells were removed from consideration, and hits were called on the basis of largest fold-increase in percentage of MBP+ oligodendrocytes relative to DMSO controls within the same plate.

OPCs = experiment: GC/MS-based sterol profiling in OPCs; type: cell-based, mouse; conditions: for sterol levels / sterol intermediate accumulation in OPCs: 24 h treatment (siRNA 96 h)
LPC-lesioned spinal cord = experiment: LPC focal demyelination of spinal cord, remyelination histology; type: in vivo, mouse; conditions: ifenprodil 10 mg per kg, tamoxifen 2 mg per kg, daily intraperitoneal, 8 days from day 4 after lesion
[4] = system: human glioma cells (GBM528); experiment: GC/MS sterol profiling in human glioma cell line; type: cell-based; conditions: 24 h
[5] = system: human induced pluripotent stem cell-derived cortical spheroids; experiment: GC/MS sterol profiling in human cortical spheroids; type: cell-based; conditions: 2 μM, 24 h
T47D cells = conditions: 5 days

COc1ccc(S(=O)(=O)N2CCC(N3CCC(C)CC3)CC2)cc1 [TASIN-1]
formation of MBP+ oligodendrocytes from OPCs (EpiSC-derived OPCs [1]; 72 h): enhanced formation of MBP+ oligodendrocytes | inhibition of EBP enzymatic activity (EBP): clear inhibition | MBP+ oligodendrocyte tracking along and wrapping of microfibers (EpiSC-derived OPCs [2]): significantly enhanced MBP+ oligodendrocyte tracking along and wrapping of the microfibers

CCC(C)(C)c1ccc(CC(C)CN2C[C@@H](C)O[C@@H](C)C2)cc1 (some centres unmarked) [amorolfine, Amorolfine]
formation of MBP+ oligodendrocytes from OPCs (EpiSC-derived OPCs [1]; 72 h): enhanced formation of MBP+ oligodendrocytes | MBP+ oligodendrocyte tracking along and wrapping of microfibers (EpiSC-derived OPCs [2]): significantly enhanced MBP+ oligodendrocyte tracking along and wrapping of the microfibers

OC(Cn1cncn1)(Cn1cncn1)c1ccc(F)cc1F [fluconazole, Fluconazole]
inhibition of mammalian CYP51 in vitro (rat CYP51): did not inhibit mammalian CYP51 in vitro

CC(=O)N1CCN(c2ccc(OCC3COC(Cn4ccnc4)(c4ccc(Cl)cc4Cl)O3)cc2)CC1 (centres unmarked) [Ketoconazole]
% 0ligos (EpiSC-derived OPCs [3]): 52.77% | IC50 (rat CYP51): 300 to 700 nM | MBP+ oligodendrocyte tracking along and wrapping of microfibers (EpiSC-derived OPCs [2]): significantly enhanced MBP+ oligodendrocyte tracking along and wrapping of the microfibers

CC/C(=C(\c1ccccc1)c1ccc(OCCN(C)C)cc1)c1ccccc1 [tamoxifen, Tamoxifen]
oligodendrocyte formation in combination with ketoconazole (EpiSC-derived OPCs [1]; 72 h): did not enhance differentiation above levels seen for ketoconazole alone | sterol levels / sterol intermediate accumulation in OPCs (OPCs): induced accumulation of zymostenol and zymosterol and decreased basal sterol levels | inhibition of EBP enzymatic activity (EBP): clear inhibition | remyelination of LPC lesion (LPC-lesioned spinal cord): remyelination was widespread throughout the lesion | sterol intermediate accumulation in human glioma cell line [4]: caused accumulation of the expected sterol intermediates

OCCOCCN1CCN(C(c2ccccc2)c2ccc(Cl)cc2)CC1 (centres unmarked) [Hydroxyzine 2HCl]
cell viability (% relative to DMS0) (EpiSC-derived OPCs [3]): 134.19% | % 0ligos (EpiSC-derived OPCs [3]): 40.63% | fold induction at 2 µM (EpiSC-derived OPCs [3]): 4.8 | inhibition of EBP enzymatic activity (EBP): directly inhibiting EBP enzymatic activity

Clc1ccc(COC(Cn2ccnc2)c2ccc(Cl)cc2Cl)c(Cl)c1 (centres unmarked) [miconazole, Miconazole]
IC50 (rat CYP51): 300 to 700 nM | sterol intermediate accumulation in human glioma cell line [4]: caused accumulation of the expected sterol intermediates | 8,9-unsaturated sterol accumulation in human cortical spheroids [5]: led to 8,9-unsaturated sterol accumulation

OCCOc1ccc(/C(=C(/CCCl)c2ccccc2)c2ccccc2)cc1 [ospemifene, Ospemifene]
formation of MBP+ oligodendrocytes from OPCs (EpiSC-derived OPCs [1]): did not enhance differentiation to MBP+ oligodendrocytes | enzyme inhibited in OPCs as indicated by sterol profile (OPCs): did not inhibit EBP in OPCs | antiestrogen effect on estrogen-dependent growth (T47D cells): comparable antiestrogen effects

CN(C)CCOc1ccc(/C(=C(/CCCl)c2ccccc2)c2ccccc2)cc1 [toremifene, Toremifene]
formation of MBP+ oligodendrocytes from OPCs (EpiSC-derived OPCs [1]; 72 h): enhanced MBP+ oligodendrocyte generation over a wide dose range | enzyme inhibited in OPCs as indicated by sterol profile (OPCs; 24 h): inhibited EBP | antiestrogen effect on estrogen-dependent growth (T47D cells): comparable antiestrogen effects

CC(=O)N1CCN(c2ccc(OC[C@@H]3CO[C@](Cn4ccnc4)(c4ccc(Cl)cc4Cl)O3)cc2)CC1 (stereo in doubt) [R-trans-Ketoconazole]
inhibition of mammalian CYP51 in vitro (rat CYP51): strikingly less effective at inhibiting mammalian CYP51

CC(=O)N1CCN(c2ccc(OC[C@H]3CO[C@@](Cn4ccnc4)(c4ccc(Cl)cc4Cl)O3)cc2)CC1 (stereo in doubt) [S-trans-Ketoconazole]
inhibition of mammalian CYP51 in vitro (rat CYP51): strikingly less effective at inhibiting mammalian CYP51

CN1[C@@H]2CC[C@H]1C[C@@H](OC(c1ccccc1)c1ccccc1)C2 [benztropine, Benztropine]
oligodendrocyte formation in combination with ketoconazole (EpiSC-derived OPCs [1]; 72 h): did not enhance differentiation above levels seen for ketoconazole alone | sterol levels / sterol intermediate accumulation in OPCs (OPCs): induced accumulation of zymostenol and zymosterol and decreased basal sterol levels | inhibition of EBP enzymatic activity (EBP): clear inhibition

Clc1ccccc1C(c1ccccc1)(c1ccccc1)n1ccnc1 [Clotrimazole]
cell viability (% relative to DMS0) (EpiSC-derived OPCs [3]): 112.83% and 122.50% | fold induction at 2 µM (EpiSC-derived OPCs [3]): 3.85 | IC50 (rat CYP51): 300 to 700 nM

Cc1cc(C)c(CNC(=O)c2cc(-c3ccc(CN4CCOCC4)cc3)cc3c2cnn3C2CCCC2)c(=O)[nH]1 [EPZ005687]
cell viability (% relative to DMS0) (EpiSC-derived OPCs [3]): 91.36% | % 0ligos (EpiSC-derived OPCs [3]): 50.00% | fold induction at 2 µM (EpiSC-derived OPCs [3]): 5.9 | formation of MBP+ oligodendrocytes from OPCs (EpiSC-derived OPCs [1]; 72 h): enhanced oligodendrocyte formation in both our mouse epiblast stem cell-derived OPCs and mouse primary OPCs | sterol levels / sterol intermediate accumulation in OPCs (OPCs): uniquely caused accumulation of zymosterol and zymostenol in OPCs | inhibition of EBP enzymatic activity (EBP): directly inhibiting EBP enzymatic activity
